What is called ΔTm is the change in melting temperature against a reference sample. Usually Kd stands for the equilibrium constant for the complex coming apart.

The source of these data is PMC9609330.

Series [1] has as its system 5′-Cy5-AT11-L2 (DNA, G4) TGGTGGTGGTTGTTGTTGGTGGTGGTGGT
In words: fluorescence titration (Cy5 quenching), Michaelis–Menten fit. To be noted: K+ 100 mM; 10 mM lithium cacodylate; 1 µM DNA; apparent KD.

The test system of series [2] is AT11-L2 (DNA, G4) TGGTGGTGGTTGTTGTTGGTGGTGGTGGT
As to the kind of experiment: CD melting. The settings on record: K+ 100 mM, 10 mM lithium cacodylate pH 7.2, 10 µM DNA, 2.0 eq. ligand (20 µM).

The subject of series [3] is 5′-Cy5-AT11-L2 (DNA, G4) TGGTGGTGGTTGTTGTTGGTGGTGGTGGT
As to the kind of experiment: fluorescence titration (Cy5 quenching), Hill fit. To be noted: K+ 100 mM, 10 mM lithium cacodylate, 1 µM DNA, apparent KD.

Series [4] addresses T1, nucleolin RBD1,2 (NCL RBD1,2) (UniProt P19338 307-466). As to the kind of experiment: fluorescence titration; PDS (pre-formed G4/ligand complex); Oligonucleotide annealed in 10 mM lithium cacodylate pH 7.2, 100 mM KCl (95 °C 10 min, then ice 10 min); titration temperature not given in the material. The settings on record: protein: recombinant; label: 5'-Cy5; intramolecular G4, parallel in 100 mM KCl.

For series [5], the target named is T1, nucleolin RBD1,2 (NCL RBD1,2). As to the kind of experiment: fluorescence titration; TMPyP4 (pre-formed complex; TMPyP4 excess disrupts the G4); Oligonucleotide annealed in 10 mM lithium cacodylate pH 7.2, 100 mM KCl (95 °C 10 min, then ice 10 min); titration temperature not given in the material. The settings on record: protein: recombinant; label: 5'-Cy5; intramolecular G4, parallel in 100 mM KCl.

For series [6] the target is unchanged. In words: fluorescence titration; PhenDC3 (pre-formed G4/ligand complex); Oligonucleotide annealed in 10 mM lithium cacodylate pH 7.2, 100 mM KCl (95 °C 10 min, then ice 10 min); titration temperature not given in the material. To be noted: protein: recombinant; label: 5'-Cy5; intramolecular G4, parallel in 100 mM KCl.
For series [7] the target is unchanged. In words: fluorescence titration; 360A (pre-formed G4/ligand complex); Oligonucleotide annealed in 10 mM lithium cacodylate pH 7.2, 100 mM KCl (95 °C 10 min, then ice 10 min); titration temperature not given in the material. To be noted: protein: recombinant; label: 5'-Cy5; intramolecular G4, parallel in 100 mM KCl.
For series [8] the target is unchanged. As to the kind of experiment: fluorescence titration; BRACO-19 (pre-formed G4/ligand complex); Oligonucleotide annealed in 10 mM lithium cacodylate pH 7.2, 100 mM KCl (95 °C 10 min, then ice 10 min); titration temperature not given in the material. To be noted: protein: recombinant; label: 5'-Cy5; intramolecular G4, parallel in 100 mM KCl.

T1 sequence (P19338 307-466): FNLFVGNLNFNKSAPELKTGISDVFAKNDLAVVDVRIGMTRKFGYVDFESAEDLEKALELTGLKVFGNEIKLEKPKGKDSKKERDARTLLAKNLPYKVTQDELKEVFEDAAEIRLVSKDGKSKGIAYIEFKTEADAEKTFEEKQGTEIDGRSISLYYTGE

With `NCCOc1cc(C(=O)Nc2cc(OCCN)c3ccccc3n2)nc(C(=O)Nc2cc(OCCN)c3ccccc3n2)c1`, the KD in series [1] was 14 ± 4.9 nM. Also, in series [2], the ΔTm worked out at 1.8 °C.
Consider `C[n+]1cc(NC(=O)c2cccc(C(=O)Nc3cc4ccccc4[n+](C)c3)n2)cc2ccccc21`, for which the KD in series [3] (Hill n = 0.6) stood at 31000 ± 60000 nM. For the same molecule, the ΔTm in series [2] is 6.5 °C.
Take `C[n+]1cc(NC(=O)c2ccc3ccc4ccc(C(=O)Nc5cc6ccccc6[n+](C)c5)nc4c3n2)cc2ccccc21`: in series [3] (Hill n = 2.2), the KD stood at 1400 ± 85 nM. Also, the ΔTm in series [2] amounted to 14.9 °C.
As for `CN(C)c1ccc(Nc2c3ccc(NC(=O)CCN4CCCC4)cc3nc3cc(NC(=O)CCN4CCCC4)ccc23)cc1`, the KD in series [3] (Hill n = 0.9) stood at 5600 ± 2000 nM. Further, the ΔTm in series [2] is 22.5 °C.
In the case of `C[n+]1ccc(-c2c3nc(c(-c4cc[n+](C)cc4)c4ccc([nH]4)c(-c4cc[n+](C)cc4)c4nc(c(-c5cc[n+](C)cc5)c5ccc2[nH]5)C=C4)C=C3)cc1`, in series [3] (Hill n = 1.2), the KD worked out at 1300 ± 150 nM. In addition, the ΔTm in series [2] (unfolds G4 at 3.5 eq.) turned out to be 22.9 °C.
Turning to TGGTGGTGGTTGTTGTTGGTGGTGGTGGT (structured_DNA) [5'-Cy5-AT11-L2 G4], the dissociation constant Kd in series [4] stood at 63 nM; in series [5], 1.2 nM; in series [6] it was 18 nM; in series [7] it was 6400 nM; in series [8], 150 nM.
